Measurements as given in patent US7423068B2, “Control of parasitic mites of honey bees” (The United States of America as represented by the …, priority 2001, dated 2008).
Like-named read-outs stand apart in the source and are kept apart here.

How the values were obtained:
[1] = tested on: free-running adult mites
Experimental: 2-Heptanone was tested for miticidal activity in two separate sets of bioassays. In the petri dish bioassays we exposed free-running adult mites to volatiles from 2-heptanone either in pure form or in an acrylic block dispenser (as described in a further experiment, below) and measured mortality over time. Mites were placed in petri dishes (5-10 mites/dish, 4 dishes per treatment and 4 dishes for controls) that were lined on the bottom with damp tissue paper covered with Parafilm®. Holes were punched in the Parafilm® using an insect pin to create a humid environment in the petri dish. A piece of filter paper the same size as the petri dish was placed on top of the Parafilm® sheet. In the first petri dish bioassay, 40 μl of pure 2-heptanone was placed on a piece of filter paper on the lid of the petri dish (treatment dishes). The Control dishes were set up as described above but nothing was added to the piece of filter paper fastened to the lid of the petri dish. The petri dishes were placed in separate incubators for treatments and Controls. Incubator temperatures were maintained at 33-34.4° C. […] In the second bioassay 0.1 g of a 30% concentration of 2-heptanone in acrylic block made as in Example 6 was placed in a plastic weighing boat in the center of petri dishes prepared as described above. Control petri dishes were prepared identically to those containing the acrylic block, but the weighing boat in the center of the dish was empty.
In another series of tests, 2-heptanone, 98+% (Sigrma-Aldrich); 3-heptanone (Fluka Chemika); 4-heptanone (Fluka Chemika); 2-hexanone; 2-octanone, 98% (Aldrich Chemical Co.); 1-heptanol (Fluka Chemika, 99.5% GC), and heptaldehyde, 95% (Aldrich Chemical Co.) were tested in petri dish bioassays wherein free-running adult mites were exposed to 40 μl of pure compound placed on filter paper as described above. The test conditions and Controls were as described above.
The test conditions and Controls were as described above.

[2] = cited from earlier work
[3] = 40 μl pure compound on filter paper, exposure time 1 hr, S.E. ± 0 unless noted
[4] = 40 μl pure compound on filter paper, exposure time 2 hrs, S.E. ± 0 unless noted

| Compound | Average % Mortality ± S.E. Treatment [1, 3] [%] | Average % Mortality ± S.E. Treatment [1, 4] [%] | % Mortality Treatment ([1]; in vivo) [%] | further results |
| --- | --- | --- | --- | --- |
| C=C(C)C1CC=C(C)CC1 (single isomer, unassigned; (+)) [d-Limonene, (+)-4-isopropenyl-1-methyl-1-cyclohexene] | 5.0 ± 5.0 | 55.0 ± 9.57 | – | – |
| CCC(C)=O [2-Butanone] | 87.5 ± 7.22 | 77.3 ± 15.6 | – | – |
| CCCCC(C)=O [2-Hexanone] | – | – | – | % Mortality Treatment ([1]; 40 μl pure compound on filter paper, exposure time 1 hr): 100% |
| CCCCCCC(C)=O [2-Octanone] | – | – | 100 | – |
| CCCC(C)=O [2-Pentanone] | – | – | – | solubility in water ([2]; in words): almost insoluble in water |
| CCCCC(=O)CC [3-Heptanone] | – | – | 100 | – |
| CCCC(=O)CCC [4-Heptanone] | – | – | 100 | – |
| CC(C)=O [Acetone] | 48 ± 8.65 | 81.2 ± 12.0 | – | solubility in water ([2]; in words): miscible with water |
| O=Cc1ccccc1 [Benzaldehyde] | 55 ± 12.6 | 100 | – | solubility in water [2]: about 350 parts water |
| CCCC(=O)OCC [Ethyl Butyrate, Ethyl butyrate] | – | – | – | Average % Mortality ± S.E. Treatment ([1]; in vivo): 81.2 ± 12.0%; solubility in water [2]: about 150 parts water |
| CCCCCCC=O [Heptaldehyde] | – | – | 100 | – |
